Test results taken from patent US8637537B2, “Serine/threonine kinase inhibitors” (Genentech, Inc., priority 2011, dated 2014).

What follows are compounds tested against T1, human recombinant GST-PAK1-KD protein (Homo sapiens, UniProt Q13153) (assay: GST-PAK1-KD (kinase domain) biochemical assay, microfluidic mobility shift). Details: Table I, PAK1 Ki class; read-out: Ki.
T1 construct: residues #249-545 of human PAK1, UniProtKP/Swiss Q13153; His6 (N); made in house; host or cells: Sf9 insect cells, pAcGP67 baculovirus expression vector
T1 sequence (Q13153 249-545): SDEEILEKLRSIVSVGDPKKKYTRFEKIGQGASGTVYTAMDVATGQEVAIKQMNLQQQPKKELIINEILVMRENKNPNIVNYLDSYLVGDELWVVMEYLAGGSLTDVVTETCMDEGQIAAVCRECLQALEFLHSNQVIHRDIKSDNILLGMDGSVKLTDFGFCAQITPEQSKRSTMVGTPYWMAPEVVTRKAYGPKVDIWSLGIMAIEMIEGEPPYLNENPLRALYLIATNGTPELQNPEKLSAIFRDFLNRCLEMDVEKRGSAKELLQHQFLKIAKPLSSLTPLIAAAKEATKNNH

First: C[C@H](Nc1nccc(Nc2cc(C3CCCO3)[nH]n2)n1)c1ccc2[nH]ccc2c1 (stereo partly drawn) [I-116, N^2—((S)-1-(1H-indol-5-yl)ethyl)-N^4-(5-(tetrahydrofuran-2-yl)-1H-pyrazol-3-yl)pyrimidine-2,4-diamine]
Second: C[C@H](Nc1nccc(Nc2cc(C3CCOC3)[nH]n2)n1)c1ccc2[nH]ccc2c1 (stereo partly drawn) [I-115, N^2—((S)-1-(1H-indol-5-yl)ethyl)-N^4-(5-(tetrahydrofuran-3-yl)-1H-pyrazol-3-yl)pyrimidine-2,4-diamine]
The Ki of the first is higher: 250 to 1000 nM for the first, less than 50 nM for the second. The second binds more tightly here.

`F[C@H]1C[C@H]1c1cc(Nc2ccnc(NCc3ccc4[nH]cnc4c3Cl)n2)n[nH]1` [I-76, N^2-((4-chloro-1H-benzo[d]imidazol-5-yl)methyl)-N^4-(5-((1S,2S)-2-fluorocyclopropyl)-1H-pyrazol-3-yl)pyrimidine-2,4-diamine] and `FC1(F)C[C@@H]1c1cc(Nc2ccnc(NCc3ccc4[nH]cnc4c3Cl)n2)n[nH]1` [I-75, (R)—N^2-((4-chloro-1H-benzo[d]imidazol-5-yl)methyl)-N^4-(5-(2,2-difluorocyclopropyl)-1H-pyrazol-3-yl)pyrimidine-2,4-diamine] cannot be ordered by Ki: less than 50 nM for the first, less than 50 nM for the second.

`C[C@H](Nc1nccc(Nc2cc([C@H]3C[C@@H]3F)[nH]n2)n1)c1ccc2[nH]ccc2c1` [I-73, N^2—((S)-1-(1H-indol-5-yl)ethyl)-N^4-(5-((1R,2S)-2-fluorocyclopropyl)-1H-pyrazol-3-yl)pyrimidine-2,4-diamine] and `C[C@H](Nc1nccc(Nc2cc([C@@H]3C[C@H]3F)[nH]n2)n1)c1ccc2[nH]cnc2c1` [I-69, N^2—((S)-1-(1H-benzo[d]imidazol-5-yl)ethyl)-N^4-(5-((1S,2R)-2-fluorocyclopropyl)-1H-pyrazol-3-yl)pyrimidine-2,4-diamine] cannot be ordered by Ki: less than 50 nM for the first, less than 50 nM for the second.

Compared with `CC[C@@H](Nc1nccc(Nc2cc(C3CC3)[nH]n2)n1)c1ccc2[nH]cnc2c1` [I-43, N^2-[(1R)-1-(1H-benzimidazol-5-yl)propyl]-N^4-(5-cyclopropyl-1H-pyrazol-3-yl)pyrimidine-2,4-diamine], `Clc1cc2[nH]cnc2cc1CNc1nccc(Nc2cc(C3CC3)[nH]n2)n1` [I-94, N^2-((6-chloro-1H-benzo[d]imidazol-5-yl)methyl)-N^4-(5-cyclopropyl-1H-pyrazol-3-yl)-pyrimidine-2,4-diamine] is lower in Ki: 250 to 1000 nM for the first, 50 to 250 nM for the second. The second binds more tightly here.

In the case of `F[C@@H]1C[C@H]1c1cc(Nc2ccnc(NCc3cccc4[nH]ccc34)n2)n[nH]1` (racemic) [I-80, trans-N^2-((1H-indol-4-yl)methyl)-N^4-(5-(2-fluorocyclopropyl)-1H-pyrazol-3-yl)pyrimidine-2,4-diamine], the Ki is reported as less than 50 nM.

Same assay, conditions: Table II, PAK1 Ki class; read-out: Ki

First: Cc1cc(CNc2nccc(Nc3cc(C4CC4)[nH]n3)n2)c2nc[nH]c2c1 [II-28, N^4-(5-Cyclopropyl-1H-pyrazol-3-yl)-N^2-((6-methyl-1H-benzo[d]imidazol-4-yl)methyl)-pyrimidine-2,4-diamine]
Second: Cc1cc(CNc2ncc(F)c(Nc3cc(C4CC4)[nH]n3)n2)c2cn[nH]c2c1 [II-25, N^4-(5-Cyclopropyl-1H-pyrazol-3-yl)-5-fluoro-N^2-((6-methyl-1H-indazol-4-yl)methyl)-pyrimidine-2,4-diamine]
The Ki of the first is higher: 50 to 250 nM for the first, less than 50 nM for the second. The second binds more tightly here.

`Fc1cc(CNc2nccc(Nc3cc([C@@H]4C[C@H]4F)[nH]n3)n2)c2cn[nH]c2c1` [II-64, N^2-((6-fluoro-1H-indazol-4-yl)methyl)-N^4-(5-((1S,2R)-2-fluorocyclopropyl)-1H-pyrazol-3-yl)pyrimidine-2,4-diamine] and `CCN(Cc1cc(F)cc2[nH]ncc12)c1nccc(Nc2cc(C3CC3)[nH]n2)n1` [II-70, N^4-(5-cyclopropyl-1H-pyrazol-3-yl)-N^2-ethyl-N^2-((6-fluoro-1H-indazol-4-yl)methyl)pyrimidine-2,4-diamine] cannot be ordered by Ki: less than 50 nM for the first, less than 50 nM for the second.

Compound `CCN(Cc1cc(F)cc2[nH]ncc12)c1ncc(F)c(Nc2cc(C3CC3)[nH]n2)n1` [II-85, N^4-(5-cyclopropyl-1H-pyrazol-3-yl)-N^2-ethyl-5-fluoro-N^2-((6-fluoro-1H-indazol-4-yl)methyl)pyrimidine-2,4-diamine] has a Ki of less than 50 nM.
